Experimental data taken from patent publication US20240158445A1, “CYCLIC CELL-PENETRATING PEPTIDES WITH THREE OR MORE HYDROPHOBIC RESIDUES” (Ohio State Innovation Foundation, priority 2021, published 2024).
Where a SMILES comes first, the peptide text is derived from it. Side-chain parts run from the residue outwards. [ ]: non-standard residue; d: D form. The star is where a group is joined. X2 = NC(=O)[C@H](CCCCNC(=O)c1ccc(-c2c3ccc4cc(O)ccc4c3oc3c2ccc2cc(=O)ccc23)c(C(=O)O)c1)N*; Lys(5-FITC)NH2 = NC(=O)[C@H](CCCCNC(=S)Nc1ccc2c(c1)C(=O)OC21c2ccc(O)cc2Oc2cc(O)ccc21)N*; X1 = CN(C)c1ccc2c(c1)Oc1cc(N(C)C)ccc1C21OC(=O)c2cc(C(=O)NCCCC[C@H](N*)C(N)=O)ccc21; 2Nal = N[C@@H](Cc1ccc2ccccc2c1)C(=O)O; Bta = N[C@@H](Cc1csc2ccccc12)C(=O)O; AEEA = NCCOCCOCC(=O)O

Key:
proteins in FBS = test: Fluorescence polarization analysis of CPP binding to FBS; set-up: species or system bovine; conditions: 100 nM labeled peptide, FBS in DPBS, 1 h, FP; read-out: apparent KD to proteins in FBS
Description: General Methods—Fluorescence Polarization (FP) Analysis of CPP Binding to FBS. Fluorescein-labeled peptide (100 nM) was incubated with serial dilutions of FBS (0-100 μM) in DPBS for 1 h. The solutions were transferred to a 384-black microplate (Greiner), and FP values were measured on a Tecan Infinite M1000 Pro plate reader, with excitation and emission wavelengths at 470 and 535 nm, respectively, for FITC, 530 and 580 nm for TMR, and 595 and 660 nm for NF. The titration curves were fitted using GraphPad Prism to the following equation: […]
where FP is the measured polarization, Amin is the minimum FP value, Amax is the maximum FP value, Qb is the quantum yield of the bound fluorophore, Qf is the quantum yield of the free fluorophore, L is the ligand concentration, KD is the dissociation constant, and x is the protein concentration. Data presented are the mean±SD of three independent experiments.

HeLa cells = test: Live-cell confocal microscopy; format: cell-based, human; conditions: 2 h, 1% FBS
Description: General Methods—Confocal Microscopy. HeLa cells were seeded in a 35-mm glass-bottomed microwell dish with 4 compartments (Greiner) at a density of 5×10^4 cells/mL (300 μL in each compartment) and cultured overnight. Next day, the cells were gently washed with DPBS twice, and treated for 2 h with FITC- or TMR-labelled peptides (5 μM, 1 μM or 0.2 μM as indicated) in phenol-red free DMEM containing 1% […]. After removal of the medium, the cells were gently washed with DPBS twice and imaged on a Nikon A1R live-cell confocal laser scanning (ECLIPSE Ti-E automated, inverted) microscope equipped with a 100× oil objective (1.45 N.A.) and a heated (37° C.) chamber supplied with 5% CO2. For the red channel (TMR), the laser line with λEx 561 nm was set at 0.6% laser power (for 5 μM peptide treatment), 1.6% laser power (for 1 μM peptide treatment) or 10.8% laser power (for 0.2 μM peptide treatment). For the green channel (FITC), the laser line with λEx 487 nm was set at 0.6% laser power. The data were analyzed using NIS-Elements AR.

Keap1-Nrf2 interaction = test: Luciferase reporter assay in ARE reporter-HepG2 cells; format: cell-based; conditions: up to 5 mM concentration
Description: General Methods—Luciferase Reporter Assay. ARE reporter-HepG2 cells (1000 cells per well) were seeded in 100 μL of assay medium (MEM, 0% FBS, and 1% penicillin-streptomycin sulfate) in an opaque 96-well plate and cultured overnight. […] After incubation, 100 μL of One-Step luciferase assay reagent was added to each well and after 15 min of shaking, the luminescence was measured using a Tecan Infinite M1000 Pro microplate reader. P values (<0.05) were estimated using Student's t test.

Kd (proteins in FBS) [µM]	Compound	intracellular distribution of TMR fluorescence (HeLa cells; 0.2 and 1.0 μM)	intracellular distribution of TMR fluorescence (HeLa cells; 5 μM)	increase in luciferase activity (Keap1-Nrf2 interaction)
1.3 ± 0.3	N=C(N)NCCC[C@@H]1NC(=O)[C@H](Cc2ccc3ccccc3c2)NC(=O)[C@@H](Cc2ccccc2)NC(=O)[C@H](Cc2ccccc2)NC(=O)[C@H](CCC(=O)NCCOCCOCC(=O)N[C@@H](CCCCNC(=O)c2ccc(-c3c4ccc5cc(O)ccc5c4oc4c3ccc3cc(=O)ccc34)c(C(=O)O)c2)C(N)=O)NC(=O)[C@@H](CCCNC(=N)N)NC(=O)[C@H](CCCNC(=N)N)NC(=O)[C@@H](CCCNC(=N)N)NC1=O [CPP12, cycl(Phe-D-Phe-Nal-Arg-D-Arg-Arg-D-Arg-Gln)] (cyclo([2Nal]R[dR]R[dR]E([AEEA-X2])F[dF]))			
1.2 ± 0.4	N=C(N)NCCC[C@@H]1NC(=O)[C@H](Cc2csc3ccccc23)NC(=O)[C@@H](Cc2ccccc2)NC(=O)[C@H](Cc2ccccc2)NC(=O)[C@H](CCC(=O)NCCOCCOCC(=O)N[C@@H](CCCCNC(=O)c2ccc(-c3c4ccc5cc(O)ccc5c4oc4c3ccc3cc(=O)ccc34)c(C(=O)O)c2)C(N)=O)NC(=O)[C@@H](CCCNC(=N)N)NC(=O)[C@H](CCCNC(=N)N)NC(=O)[C@@H](CCCNC(=N)N)NC1=O [CPP12-2, Phe-phe-(Bta)-Arg-arg-Arg-arg-Gln] (cyclo([Bta]R[dR]R[dR]E([AEEA-X2])F[dF]))			
30 ± 5	N=C(N)NCCC[C@@H]1NC(=O)[C@H](Cc2csc3ccccc23)NC(=O)[C@@H](Cc2ccccc2)NC(=O)[C@H](Cc2ccccc2)NC(=O)[C@H](CCC(=O)NCCOCCOCC(=O)N[C@@H](CCCCNC(=S)Nc2ccc3c(c2)C(=O)OC32c3ccc(O)cc3Oc3cc(O)ccc32)C(N)=O)NC(=O)[C@@H](CCCNC(=N)N)NC(=O)[C@H](CCCNC(=N)N)NC(=O)[C@@H](CCCNC(=N)N)NC1=O [CPP12-2^FITC] (cyclo(F[dF][Bta]R[dR]R[dR]E([AEEA-Lys(5-FITC)NH2])))			
68 ± 9	CN(C)c1ccc2c(c1)Oc1cc(N(C)C)ccc1C21OC(=O)c2cc(C(=O)NCCCC[C@H](NC(=O)COCCOCCNC(=O)CC[C@@H]3NC(=O)[C@@H](CCCNC(=N)N)NC(=O)[C@H](CCCNC(=N)N)NC(=O)[C@@H](CCCNC(=N)N)NC(=O)[C@H](CCCNC(=N)N)NC(=O)[C@H](Cc4csc5ccccc45)NC(=O)[C@@H](Cc4ccccc4)NC(=O)[C@H](Cc4ccccc4)NC3=O)C(N)=O)ccc21 [CPP12-2^TMR] (cyclo([Bta]R[dR]R[dR]E([AEEA-X1])F[dF]))	predominantly punctate fluorescence in the cytoplasmic region		
29 ± 3	N=C(N)NCCC[C@@H]1NC(=O)[C@H](Cc2ccc3ccccc3c2)NC(=O)[C@@H](Cc2ccccc2)NC(=O)[C@H](Cc2ccccc2)NC(=O)[C@H](CCC(=O)NCCOCCOCC(=O)N[C@@H](CCCCNC(=S)Nc2ccc3c(c2)C(=O)OC32c3ccc(O)cc3Oc3cc(O)ccc32)C(N)=O)NC(=O)[C@@H](CCCNC(=N)N)NC(=O)[C@H](CCCNC(=N)N)NC(=O)[C@@H](CCCNC(=N)N)NC1=O [CPP12^FITC] (cyclo(F[dF][2Nal]R[dR]R[dR]E([AEEA-Lys(5-FITC)NH2])))			
27 ± 9	CN(C)c1ccc2c(c1)Oc1cc(N(C)C)ccc1C21OC(=O)c2cc(C(=O)NCCCC[C@H](NC(=O)COCCOCCNC(=O)CC[C@@H]3NC(=O)[C@@H](CCCNC(=N)N)NC(=O)[C@H](CCCNC(=N)N)NC(=O)[C@@H](CCCNC(=N)N)NC(=O)[C@H](CCCNC(=N)N)NC(=O)[C@H](Cc4ccc5ccccc5c4)NC(=O)[C@@H](Cc4ccccc4)NC(=O)[C@H](Cc4ccccc4)NC3=O)C(N)=O)ccc21 [CPP12^TMR] (cyclo([2Nal]R[dR]R[dR]E([AEEA-X1])F[dF]))	predominantly punctate fluorescence in the cytoplasmic region	very similar intracellular distribution	
	CC(C)C[C@@H]1NC(=O)[C@H](Cc2ccccc2)NC(=O)[C@H](CCC(=O)O)NC(=O)CNC(=O)[C@H]([C@@H](C)O)NC(=O)[C@H](CCC(=O)O)NC(=O)[C@@H]2CCCN2C(=O)[C@H](CC(=O)O)NC(=O)[C@H](CC(C)C)NC(=O)[C@H](CCC(N)=O)NC(=O)CNC1=O [Peptide P1]			did not result in significant increase in luciferase activity
